The values that follow come from article PMC5225203, “Multiparameter toxicity assessment of novel DOPO-derived organophosphorus flame retardants” (Archives of Toxicology, 2016).

Series [1] relates to rat neuroblastoma B35 cells. As to conditions: B35, 24 h, maximal concentration 100 µM; ref Hendriks et al. [2014]; cited from earlier work.
In another series the test system is Daphnia magna. As to conditions: water-soluble fraction of a 1000 mg/L suspension (approximately 2 mM), 48 h; ref Waaijers et al. [2013a], [b]; cited from earlier work.
For series [2], the system named is differentiating LUHMES cells. The series is classed as cell-based, human. As to conditions: day 0 to day 2. As for the experimental part:
LUHMES cells are conditionally immortalized human fetal ventral mesencephalic neuronal precursor cells that were obtained by clonal selection. Differentiated LUHMES cells show a clear dopaminergic phenotype, which was described in detail previously (Schildknecht et al. [2009]; Scholz et al. [2011]). Cells were propagated in advanced DMEM/F12 (Gibco/Invitrogen, Darmstadt, Germany) with 1 × N2 supplement (Invitrogen), 2 mM L-glutamine (Gibco), and 40 ng/mL recombinant bFGF (R&D Systems, Minneapolis, MN, USA). […] For quantitative evaluation of the neurite area, β-III-tubulin-stained cells were analyzed using an automated microplate-reading microscope (Array-Scan II® HCS Reader, Cellomics, Pittsburgh, PA, USA) equipped with a Hamamatsu ORCA-ER camera (1024 × 1024 resolution; run at 2 × 2 binning). […]
For quantitative assessment of total neurite mass, cells were analysed by an automated microscope system with imaging algorithms allowing a separation between cell bodies and […]
Suppl. […] Differentiating human dopaminergic neurons (LUHMES) were treate d with the different flame retardants in the concentrations as indicated for 48 h from day 0 to day 2 of differentiation. a Cell viability was determined by the resazurin redu ction and by the lactate dehydrogenase release assays. b Intracellular levels of ATP and of reduced glutathione (GSH) were measured in parallel.

For the next series, the system named is A549 cells. On the set-up: method as in Kim et al. [2014]. As to conditions: same concentration range as used in the present study; ref Kim et al. [2014]; cited from earlier work.
For a further series, the system named is human neural crest cells. On the set-up: method as in Zimmer et al. [2014]. As to conditions: concentrations as high as 100 µM; ref Zimmer et al. [2014]; cited from earlier work.

As for `O=[PH]1Oc2ccccc2-c2ccccc21` (stereo not drawn) [DOPO, 9,10-dihydro-9-oxa-10-phosphaphenanthrene-10-oxide], in series [1], the “alterations in cell viability, generation of reactive oxygen species, or intracellular Ca2+ levels” value is given as “no signs of alterations”. Also, the “influence on daphnid viability” value in the series on Daphnia magna is “did not significantly influence viability”.
In the case of `O=P1(NCCNP2(=O)Oc3ccccc3-c3ccccc32)Oc2ccccc2-c2ccccc21` (stereo not drawn) [EDA-DOPO, 6,6′-(ethane-1,2-diylbis(azanediyl))bis(6H-dibenzo[c,e][1,2]oxaphosphinine-6-oxide)], in series [2], the “influence on total neurite area” value is listed as “moderate, but significant influence”; the “intracellular levels of ATP and GSH” value is on record as “this effect was not reflected”.
As for `Brc1ccc(Oc2cc(Br)c(Br)cc2Br)c(Br)c1` [PBDE-99, reference compound], the “cell damage in A549 cells” value with A549 cells was “did not produce cell damage”. Besides, the “NCC migration and cell death” value in the series on human neural crest cells is “inhibited migration in the absence of cell death”.
